Biological target: MBP W62F mutant (Escherichia coli, UniProt P0AEX9, S259C/W88F)
Assay type: binding
Conditions: no sAB

`OC[C@H]1O[C@H](O[C@H]2[C@H](O)[C@@H](O)C(O)O[C@@H]2CO)[C@H](O)[C@@H](O)[C@@H]1O` (mixture of isomers) [maltose] was tested, and the “decrease in maltose binding energy caused by W62F mutation” value was ~ 2 kcal/mol.
